{"source": "patent EP0460016B1", "about": "“METASTASIS-ASSOCIATED COLLAGENOLYTIC METALLOPROTEINASES” (priority 1989, dated 1990)", "key": {"[1]": {"biological_target": "T1, Mr 88,000 proteinase (88/92 kd type IV collagenolytic metalloproteinase) (Rattus norvegicus, UniProt P50282)", "T1 construct": "type IV collagenolytic enzymes secreted by mammary adenocarcinoma cells; endogenous in cells; host or cells: rat 13762NF mammary adenocarcinoma cell clones (MTF7-T35.3, MTC, MTLn3-T44.5), serum-free conditioned medium", "T1 sequence (P50282 108-708)": "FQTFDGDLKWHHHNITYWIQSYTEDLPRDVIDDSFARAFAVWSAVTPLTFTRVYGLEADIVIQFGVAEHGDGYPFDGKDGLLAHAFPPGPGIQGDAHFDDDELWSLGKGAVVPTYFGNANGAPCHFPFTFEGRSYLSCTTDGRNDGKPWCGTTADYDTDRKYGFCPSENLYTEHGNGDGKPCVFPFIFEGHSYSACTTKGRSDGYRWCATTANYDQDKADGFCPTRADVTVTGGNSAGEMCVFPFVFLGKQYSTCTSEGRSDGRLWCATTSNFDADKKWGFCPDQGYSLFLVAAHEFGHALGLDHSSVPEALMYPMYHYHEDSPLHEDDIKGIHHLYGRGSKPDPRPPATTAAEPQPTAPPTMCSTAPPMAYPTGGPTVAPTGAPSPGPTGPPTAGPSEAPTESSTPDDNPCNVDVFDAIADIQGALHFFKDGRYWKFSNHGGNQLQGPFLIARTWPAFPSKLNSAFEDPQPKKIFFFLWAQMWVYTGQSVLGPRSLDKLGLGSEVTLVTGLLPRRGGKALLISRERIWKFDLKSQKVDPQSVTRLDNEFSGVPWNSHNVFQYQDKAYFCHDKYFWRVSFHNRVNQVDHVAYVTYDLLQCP", "type": "biochemical", "experimental": "(§1) Identification of type IV collagenolytic enzymes secreted by mammary adenocarcinoma cells was performed by electrophoresis of serum-free conditioned media in a type IV collagen-embedded polyacrylamide gel followed by incubation and Coomassie blue staining, based on the methods described by Heussen and Dowdle (24). Type IV procollagen was purified from Engelbreth-Holm-Sworn tumors, dissolved in 0.5 M acetic acid or bovine lens capsule type IV collagen pepsin fragments (Seikagaku America, St. Petersburg, FL) in HCl at pH 3.0, neutralized with Tris and immediately dissolved in 2% SDS. After removing undissolved materials by a brief centrifugation at 18,000 x g, SDS-solubilized type IV collagen was copolymerized with 7.5% acrylamide. In some experiments, each of the following proteins was also embedded in SDS-polyacrylamide gels: rat hemoglobin; rat immunoglobulin G; bovine serum ablumin; bovine plasma fibronectin; bovine alpha-casein; and gelatin from swine skin (Sigma Chemical, St. Louis, MO). Electrophoresis of serum, or other samples such as one obtained from conditioned media, was carried out by the method of Laemmli (25) in polyacrylamide gels containing 0.5 to 1.0 mg/ml of type IV collagen.\n(§2) In the case of serum samples, serum (2.5 ul) was mixed with the same volume of sodium dodecyl sulfate sample buffer without reducing agents, and immediately subjected to electrophoresis in a 7.5% polyacrylamide gel containing the protein substrates. After electrophoresis, gels were rinsed twice with 2.5% Triton X-100 in 50 mM Tris-HCl buffer, pH 7.5, and incubated at 37`C for 16 h in 0.15 M NaCl, 10 mM CaCl₂ and 50 mM Tris-HCl buffer, pH 7.5, containing 0.05% NaN₃. Gels were stained with 0.05% Coomassie blue, 10% isopropanol, and 10% acetic acid in H₂0 and these destained with 10% isopropanol and 10% acetic acid in H₂0. Type IV collagenolytic enzymes were detected as transparent bands on the blue background of Coomassie blue-stained slab gels.\n(§3) In order to conduct zymography using samples obtained by the preparation of conditioned media, the following steps were performed. Mammary adenocarcinoma cells (1 x 10⁶ cells) were seeded in a 10-cm tissue culture plate and cultured for 24 h in […] complete medium containing 10% heat-inactivated FBS. The cells were extensively washed with DPBS and then further cultured in 10 ml of serum-free complete medium. The serum-free culture supernatants were withdrawn and sequentially centrifuged at 800 x g and 18,000 x g, and then aliquots of the supernatants were concentrated with Centricon 30 concentrators (Amicon, Danvers, MA) and mixed with SDS sample buffer."}, "Mr 64,000 proteinase": {"tested_on": "Mr 64,000 proteinase", "type": "biochemical, rat", "experimental": "as §1, §2, §3"}, "[2]": {"details": "10 mM in incubation buffer, conditioned media from 48 h cultures"}, "[3]": {"details": "5 mM in incubation buffer, conditioned media from 48 h cultures"}, "[4]": {"details": "2 mM in incubation buffer, conditioned media from 48 h cultures"}}, "note": "Read-outs that look alike come from different tables or passages of the source.", "data": [{"smiles": "c1cnc2c(c1)ccc1cccnc12", "note": "[1,10-phenanthroline]", "values": [{"measurement": "active enzyme bands / enzyme activity", "setting": "[1]; [2]", "result": "did not appear"}, {"measurement": "active enzyme bands / enzyme activity", "setting": "[1]; 10 mM in incubation buffer, conditioned media from 48 h cultures, listed as 1, 10-phenanthroline, 10000 µM", "result": "inactive"}, {"measurement": "active enzyme bands", "setting": "Mr 64,000 proteinase; [2]", "result": "did not appear"}]}, {"smiles": "O=C(O)CN(CCN(CC(=O)O)CC(=O)O)CC(=O)O", "note": "[EDTA, ethylenediaminetetraacetic acid]", "values": [{"measurement": "active enzyme bands / enzyme activity", "setting": "[1]", "result": "did not appear"}, {"measurement": "active enzyme bands / enzyme activity", "setting": "[1]; 10000 µM", "result": "inactive"}, {"measurement": "active enzyme bands", "setting": "Mr 64,000 proteinase", "result": "did not appear"}]}, {"smiles": "CCN1C(=O)C=CC1=O", "note": "[N-ethylmaleimide]", "values": [{"measurement": "enzyme activity", "setting": "[1]; [3]", "result": "did not inhibit"}, {"measurement": "enzyme activity", "setting": "[1]; 5 mM in incubation buffer, conditioned media from 48 h cultures, listed as NEM", "result": "not inhibited"}, {"measurement": "enzyme activity", "setting": "Mr 64,000 proteinase; [3]", "result": "did not inhibit"}]}, {"smiles": "O=S(=O)(F)Cc1ccccc1", "note": "[phenylmethylsulfonyl fluoride]", "values": [{"measurement": "enzyme activity", "setting": "[1]; [4]", "result": "did not inhibit"}, {"measurement": "enzyme activity", "setting": "[1]; 2 mM in incubation buffer, conditioned media from 48 h cultures, listed as PMSF", "result": "not inhibited"}, {"measurement": "enzyme activity", "setting": "Mr 64,000 proteinase; [4]", "result": "did not inhibit"}]}]}
